From PubChem BioAssay (NCI)
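Five compound concentrations were applied to cells in 96-well plates for 48 hours; endpoints were derived by simple linear interpolation of the resulting dose-response curve. TGI: concentration producing complete growth inhibition.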

Test system: SN12K1 renal
Test: NCI-60 cell line screen, 48 h

In the case of `O=c1cnn(C2OC(CO)C(O)C2O)c(=S)[nH]1` (stereo unspecified), the TGI is reported as over 100 µM.
